Assay results: patent US20160075991A1, “Process for Preparing Starter Cultures of Lactic Acid Bacteria” (INSTITUT NATIONAL DE LA RECHERCHE, priority 1998, published 2016)

Key:
[1] = system: Z106; assay: Culture with hemin and agitation, different strains (Example 4); assay type: cell-based, L. lactis; details: strain Z106, hemin 10 μg/ml and agitation, M17 1% glucose, 24 h
Experimental: Bacteria [MG1363 and 7 strains (IL1403, IL582, IL801, IL896, Z105, Z106, Z191) representative of L. lactis subgroups [TAILLEZ et al., System. Appl. Microbiol., 21, 530-538, (1998)] are cultured in M17 medium (1% glucose) inoculated (1/1000 dilution) with a saturated starter culture previously grown at 30° C. for 24 h. Hemin at a final concentration of 10 μg/ml is added to the inoculated medium before aerating the cultures by shaking (minimum 220 rpm). Control cultures are grown in parallel with no hemin in the medium, and no shaking. After 24 h., aliquots are taken and OD600 and final pH are measured.

[2] = system: Lactococcus lactis subsp. cremoris strain MG1363; assay: Survival of the lactic acid bacteria during storage at 30° C. (Example 2); assay type: cell-based; details: for Number of viable cells: hemin 10 μg/ml and aeration, 1% glucose M17
Experimental: A laboratory medium, i.e. M17 supplemented with 1% of glucose, is inoculated with Lactococcus lactis subsp. cremoris strain MG1363 in the form of a 1/1000 dilution of a saturated culture. The cultures are then divided into two equal parts, and hemin is added to one of these two cultures to give a final concentration of 10 μg/ml. […] Aliquots of the two cultures are removed regularly during the exponential growth phase in order to monitor viability, rate of growth and pH. After 24 h of growth, the cultures are placed (stored) in a 30° C. incubator without shaking, and aliquots are removed every 24 h in order to monitor the viability of the cells.

## C=CC1=C(C)c2cc3[n-]c(cc4nc(cc5[n-]c(cc1n2)c(C)c5C=C)C(C)=C4CCC(=O)O)c(CCC(=O)O)c3C.[Cl-].[Fe+3] [hemin]
[1]; final pH
  pH: 5.74
[1]
  OD500 nm: 4.5
[2]; 2 days after inoculation, storage at 30° C., hemin and oxygen
  viability after one day of storage: do not lose any viability
[2]; after 5 days of storage at 30° C., grown with aeration and hemin
  rate of survival: approximately 10^−2
[2]; 0 days after inoculation
  Number of viable cells: 1 × 10^6
[2]; 1 day after inoculation
  Number of viable cells: 1.76 × 10^10
[2]; 2 days after inoculation, stored at 30° C.
  Number of viable cells: 1.71 × 10^10
[2]; 3 days after inoculation, stored at 30° C.
  Number of viable cells: 5.32 × 10^9
[2]; 5 days after inoculation, stored at 30° C.
  Number of viable cells: 4.3 × 10^8
[2]; 6 days after inoculation, stored at 30° C.
  Number of viable cells: 8.5 × 10^7
